From ChEMBL document CHEMBL3862012, “Methylene versus carbonyl bridge in the structure of new tubulin polymerization inhibitors with tricyclic A-rings” (Bioorg Med Chem, 2016)

System: not listed separately
Experiment: Cytotoxicity against human EKVX cells assessed as growth inhibition at 10 uM after 48 hrs by SRB assay relative to control
Type: functional
Settings: read-out: GI

SMILES | inhibition of growth at 10 µM [%]
COc1ccc(CN2c3ccccc3Sc3ccccc32)cc1O | 63
COc1ccc(CN2c3ccccc3Sc3ccccc32)cc1F | 66

System: not listed separately
Experiment: Cytotoxicity against human PC3 cells assessed as growth inhibition at 10 uM after 48 hrs by SRB assay relative to control
Type: functional
Settings: PC-3, 48 h, read-out: GI

SMILES | inhibition of growth at 10 µM [%]
COc1ccc(CN2c3ccccc3Sc3ccccc32)cc1O | 74
COc1ccc(CN2c3ccccc3Sc3ccccc32)cc1F | 79

System: not listed separately
Experiment: Cytotoxicity against human MALME-3M cells assessed as growth inhibition at 10 uM after 48 hrs by SRB assay relative to control
Type: functional
Settings: read-out: GI

SMILES | inhibition of growth at 10 µM [%]
COc1ccc(CN2c3ccccc3Sc3ccccc32)cc1O | 28
COc1ccc(CN2c3ccccc3Sc3ccccc32)cc1F | 67

System: not listed separately
Experiment: Cytotoxicity against human COLO205 cells assessed as growth inhibition at 10 uM after 48 hrs by SRB assay relative to control
Type: functional
Settings: COLO 205, 48 h, read-out: GI

SMILES | inhibition of growth at 10 µM [%]
COc1ccc(CN2c3ccccc3Sc3ccccc32)cc1O | 100
COc1ccc(CN2c3ccccc3Sc3ccccc32)cc1F | 100

System: not listed separately
Experiment: Cytotoxicity against human T47D cells assessed as growth inhibition at 10 uM after 48 hrs by SRB assay relative to control
Type: functional
Settings: read-out: GI

SMILES | inhibition of growth at 10 µM [%]
COc1ccc(CN2c3ccccc3Sc3ccccc32)cc1O | 73
COc1ccc(CN2c3ccccc3Sc3ccccc32)cc1F | 50

System: not listed separately
Experiment: Cytotoxicity against human RPMI8226 cells assessed as growth inhibition at 10 uM after 48 hrs by SRB assay relative to control
Type: functional
Settings: RPMI-8226, 48 h, read-out: GI

SMILES | inhibition of growth at 10 µM [%]
COc1ccc(CN2c3ccccc3Sc3ccccc32)cc1O | 76
COc1ccc(CN2c3ccccc3Sc3ccccc32)cc1F | 79

System: not listed separately
Experiment: Cytotoxicity against human NCI-H23 cells assessed as growth inhibition at 10 uM after 48 hrs by SRB assay relative to control
Type: functional
Settings: NCI-H23, 48 h, read-out: GI

SMILES | inhibition of growth at 10 µM [%]
COc1ccc(CN2c3ccccc3Sc3ccccc32)cc1O | 63
COc1ccc(CN2c3ccccc3Sc3ccccc32)cc1F | 69

System: not listed separately
Experiment: Cytotoxicity against human MDA-MB-435 cells assessed as growth inhibition at 10 uM after 48 hrs by SRB assay relative to control
Type: functional
Settings: MDA-MB-435, 48 h, read-out: GI

SMILES | inhibition of growth at 10 µM [%]
COc1ccc(CN2c3ccccc3Sc3ccccc32)cc1O | 99
COc1ccc(CN2c3ccccc3Sc3ccccc32)cc1F | 100

System: not listed separately
Experiment: Cytotoxicity against human A549 cells assessed as growth inhibition at 10 uM after 48 hrs by SRB assay relative to control
Type: functional
Settings: A549, 48 h, read-out: GI

SMILES | inhibition of growth at 10 µM [%]
COc1ccc(CN2c3ccccc3Sc3ccccc32)cc1O | 86
COc1ccc(CN2c3ccccc3Sc3ccccc32)cc1F | 78

System: not listed separately
Experiment: Cytotoxicity against human MCF7 cells assessed as growth inhibition at 10 uM after 48 hrs by SRB assay relative to control
Type: functional
Settings: MCF7, 48 h, read-out: GI

SMILES | inhibition of growth at 10 µM [%]
COc1ccc(CN2c3ccccc3Sc3ccccc32)cc1O | 74
COc1ccc(CN2c3ccccc3Sc3ccccc32)cc1F | 84

System: not listed separately
Experiment: Cytotoxicity against human SF268 cells assessed as growth inhibition at 10 uM after 48 hrs by SRB assay relative to control
Type: functional
Settings: SF-268, 48 h, read-out: GI

SMILES | inhibition of growth at 10 µM [%]
COc1ccc(CN2c3ccccc3Sc3ccccc32)cc1O | 54
COc1ccc(CN2c3ccccc3Sc3ccccc32)cc1F | 61

System: not listed separately
Experiment: Cytotoxicity against human M14 cells assessed as growth inhibition at 10 uM after 48 hrs by SRB assay relative to control
Type: functional
Settings: M14, 48 h, read-out: GI

SMILES | inhibition of growth at 10 µM [%]
COc1ccc(CN2c3ccccc3Sc3ccccc32)cc1O | 86
COc1ccc(CN2c3ccccc3Sc3ccccc32)cc1F | 100

System: not listed separately
Experiment: Cytotoxicity against human MOLT4 cells assessed as growth inhibition at 10 uM after 48 hrs by SRB assay relative to control
Type: functional
Settings: MOLT-4, 48 h, read-out: GI

SMILES | inhibition of growth at 10 µM [%]
COc1ccc(CN2c3ccccc3Sc3ccccc32)cc1O | 82
COc1ccc(CN2c3ccccc3Sc3ccccc32)cc1F | 73

System: not listed separately
Experiment: Cytotoxicity against human OVCAR3 cells assessed as growth inhibition at 10 uM after 48 hrs by SRB assay relative to control
Type: functional
Settings: OVCAR-3, 48 h, read-out: GI

SMILES | inhibition of growth at 10 µM [%]
COc1ccc(CN2c3ccccc3Sc3ccccc32)cc1O | 93
COc1ccc(CN2c3ccccc3Sc3ccccc32)cc1F | 100

System: not listed separately
Experiment: Cytotoxicity against human NCI-H460 cells assessed as growth inhibition at 10 uM after 48 hrs by SRB assay relative to control
Type: functional
Settings: NCI-H460, 48 h, read-out: GI

SMILES | inhibition of growth at 10 µM [%]
COc1ccc(CN2c3ccccc3Sc3ccccc32)cc1O | 90
COc1ccc(CN2c3ccccc3Sc3ccccc32)cc1F | 95

System: not listed separately
Experiment: Cytotoxicity against human UACC257 cells assessed as growth inhibition at 10 uM after 48 hrs by SRB assay relative to control
Type: functional
Settings: UACC-257, 48 h, read-out: GI

SMILES | inhibition of growth at 10 µM [%]
COc1ccc(CN2c3ccccc3Sc3ccccc32)cc1O | 48
COc1ccc(CN2c3ccccc3Sc3ccccc32)cc1F | 45

System: not listed separately
Experiment: Cytotoxicity against human SNB19 cells assessed as growth inhibition at 10 uM after 48 hrs by SRB assay relative to control
Type: functional
Settings: SNB-19, 48 h, read-out: GI

SMILES | inhibition of growth at 10 µM [%]
COc1ccc(CN2c3ccccc3Sc3ccccc32)cc1O | 67
COc1ccc(CN2c3ccccc3Sc3ccccc32)cc1F | 65

System: not listed separately
Experiment: Cytotoxicity against human RXF393 cells assessed as growth inhibition at 10 uM after 48 hrs by SRB assay relative to control
Type: functional
Settings: RXF 393, 48 h, read-out: GI

SMILES | inhibition of growth at 10 µM [%]
COc1ccc(CN2c3ccccc3Sc3ccccc32)cc1O | 100
COc1ccc(CN2c3ccccc3Sc3ccccc32)cc1F | 83

System: not listed separately
Experiment: Cytotoxicity against human HT-29 cells assessed as growth inhibition at 10 uM after 48 hrs by SRB assay relative to control
Type: functional
Settings: HT-29, 48 h, read-out: GI

SMILES | inhibition of growth at 10 µM [%]
COc1ccc(CN2c3ccccc3Sc3ccccc32)cc1O | 91
COc1ccc(CN2c3ccccc3Sc3ccccc32)cc1F | 100

System: not listed separately
Experiment: Cytotoxicity against human HL-60(TB) cells assessed as growth inhibition at 10 uM after 48 hrs by SRB assay relative to control
Type: functional
Settings: HL-60, 48 h, read-out: GI

SMILES | inhibition of growth at 10 µM [%]
COc1ccc(CN2c3ccccc3Sc3ccccc32)cc1O | 79
COc1ccc(CN2c3ccccc3Sc3ccccc32)cc1F | 100

System: not listed separately
Experiment: Cytotoxicity against human OVCAR4 cells assessed as growth inhibition at 10 uM after 48 hrs by SRB assay relative to control
Type: functional
Settings: OVCAR-4, 48 h, read-out: GI

SMILES | inhibition of growth at 10 µM [%]
COc1ccc(CN2c3ccccc3Sc3ccccc32)cc1O | 54
COc1ccc(CN2c3ccccc3Sc3ccccc32)cc1F | 51

System: not listed separately
Experiment: Cytotoxicity against human 786-0 cells assessed as growth inhibition at 10 uM after 48 hrs by SRB assay relative to control
Type: functional
Settings: 786-0, 48 h, read-out: GI

SMILES | inhibition of growth at 10 µM [%]
COc1ccc(CN2c3ccccc3Sc3ccccc32)cc1O | 57
COc1ccc(CN2c3ccccc3Sc3ccccc32)cc1F | 78

System: not listed separately
Experiment: Cytotoxicity against human ACHN cells assessed as growth inhibition at 10 uM after 48 hrs by SRB assay relative to control
Type: functional
Settings: read-out: GI

SMILES | inhibition of growth at 10 µM [%]
COc1ccc(CN2c3ccccc3Sc3ccccc32)cc1O | 58
COc1ccc(CN2c3ccccc3Sc3ccccc32)cc1F | 58

System: not listed separately
Experiment: Cytotoxicity against human SW620 cells assessed as growth inhibition at 10 uM after 48 hrs by SRB assay relative to control
Type: functional
Settings: SW-620, 48 h, read-out: GI

SMILES | inhibition of growth at 10 µM [%]
COc1ccc(CN2c3ccccc3Sc3ccccc32)cc1O | 69
COc1ccc(CN2c3ccccc3Sc3ccccc32)cc1F | 76

System: not listed separately
Experiment: Cytotoxicity against human CCRF-CEM cells assessed as growth inhibition at 10 uM after 48 hrs by SRB assay relative to control
Type: functional
Settings: read-out: GI

SMILES | inhibition of growth at 10 µM [%]
COc1ccc(CN2c3ccccc3Sc3ccccc32)cc1O | 92
COc1ccc(CN2c3ccccc3Sc3ccccc32)cc1F | 78

System: not listed separately
Experiment: Cytotoxicity against human U251 cells assessed as growth inhibition at 10 uM after 48 hrs by SRB assay relative to control
Type: functional
Settings: U-251, 48 h, read-out: GI

SMILES | inhibition of growth at 10 µM [%]
COc1ccc(CN2c3ccccc3Sc3ccccc32)cc1O | 82
COc1ccc(CN2c3ccccc3Sc3ccccc32)cc1F | 79

System: not listed separately
Experiment: Cytotoxicity against human NCI-H522 cells assessed as growth inhibition at 10 uM after 48 hrs by SRB assay relative to control
Type: functional
Settings: NCI-H522, 48 h, read-out: GI

SMILES | inhibition of growth at 10 µM [%]
COc1ccc(CN2c3ccccc3Sc3ccccc32)cc1O | 100
COc1ccc(CN2c3ccccc3Sc3ccccc32)cc1F | 95

System: not listed separately
Experiment: Cytotoxicity against human UO31 cells assessed as growth inhibition at 10 uM after 48 hrs by SRB assay relative to control
Type: functional
Settings: UO-31, 48 h, read-out: GI

SMILES | inhibition of growth at 10 µM [%]
COc1ccc(CN2c3ccccc3Sc3ccccc32)cc1O | 76
COc1ccc(CN2c3ccccc3Sc3ccccc32)cc1F | 54

System: not listed separately
Experiment: Cytotoxicity against human SK-MEL-2 cells assessed as growth inhibition at 10 uM after 48 hrs by SRB assay relative to control
Type: functional
Settings: SK-MEL-2, 48 h, read-out: GI

SMILES | inhibition of growth at 10 µM [%]
COc1ccc(CN2c3ccccc3Sc3ccccc32)cc1O | 91
COc1ccc(CN2c3ccccc3Sc3ccccc32)cc1F | 60

System: not listed separately
Experiment: Cytotoxicity against human KM12 cells assessed as growth inhibition at 10 uM after 48 hrs by SRB assay relative to control
Type: functional
Settings: KM12, 48 h, read-out: GI

SMILES | inhibition of growth at 10 µM [%]
COc1ccc(CN2c3ccccc3Sc3ccccc32)cc1O | 82
COc1ccc(CN2c3ccccc3Sc3ccccc32)cc1F | 84

System: not listed separately
Experiment: Cytotoxicity against human MDA-MB-468 cells assessed as growth inhibition at 10 uM after 48 hrs by SRB assay relative to control
Type: functional
Settings: MDA-MB-468, 48 h, read-out: GI

SMILES | inhibition of growth at 10 µM [%]
COc1ccc(CN2c3ccccc3Sc3ccccc32)cc1O | 91
COc1ccc(CN2c3ccccc3Sc3ccccc32)cc1F | 100

System: not listed separately
Experiment: Cytotoxicity against human HCT116 cells assessed as growth inhibition at 10 uM after 48 hrs by SRB assay relative to control
Type: functional
Settings: HCT-116, 48 h, read-out: GI

SMILES | inhibition of growth at 10 µM [%]
COc1ccc(CN2c3ccccc3Sc3ccccc32)cc1O | 87
COc1ccc(CN2c3ccccc3Sc3ccccc32)cc1F | 91

System: not listed separately
Experiment: Cytotoxicity against human HCT15 cells assessed as growth inhibition at 10 uM after 48 hrs by SRB assay relative to control
Type: functional
Settings: HCT-15, 48 h, read-out: GI

SMILES | inhibition of growth at 10 µM [%]
COc1ccc(CN2c3ccccc3Sc3ccccc32)cc1O | 67
COc1ccc(CN2c3ccccc3Sc3ccccc32)cc1F | 84

System: not listed separately
Experiment: Cytotoxicity against human NCI-H322M cells assessed as growth inhibition at 10 uM after 48 hrs by SRB assay relative to control
Type: functional
Settings: read-out: GI

SMILES | inhibition of growth at 10 µM [%]
COc1ccc(CN2c3ccccc3Sc3ccccc32)cc1O | 67
COc1ccc(CN2c3ccccc3Sc3ccccc32)cc1F | 57

Organism: Ovis aries
Experiment: Inhibition of sheep brain tubulin polymerization at 100 uM by DAPI staining-based fluorimetric method relative to control
Settings: not given

SMILES | inhibition [%]
COc1ccc(CN2c3ccccc3Sc3ccccc32)cc1O | 64
COc1ccc(CN2c3ccccc3Sc3ccccc32)cc1F | 63

System: not listed separately
Experiment: Cytotoxicity against human OVCAR5 cells assessed as growth inhibition at 10 uM after 48 hrs by SRB assay relative to control
Type: functional
Settings: OVCAR-5, 48 h, read-out: GI

SMILES | inhibition of growth at 10 µM [%]
COc1ccc(CN2c3ccccc3Sc3ccccc32)cc1O | 14
COc1ccc(CN2c3ccccc3Sc3ccccc32)cc1F | 57

System: not listed separately
Experiment: Cytotoxicity against human NCI-ADR-RES cells assessed as growth inhibition at 10 uM after 48 hrs by SRB assay relative to control
Type: functional
Settings: read-out: GI

SMILES | inhibition of growth at 10 µM [%]
COc1ccc(CN2c3ccccc3Sc3ccccc32)cc1O | 82
COc1ccc(CN2c3ccccc3Sc3ccccc32)cc1F | 97

System: not listed separately
Experiment: Cytotoxicity against human Hs 578T cells assessed as growth inhibition at 10 uM after 48 hrs by SRB assay relative to control
Type: functional
Settings: read-out: GI

SMILES | inhibition of growth at 10 µM [%]
COc1ccc(CN2c3ccccc3Sc3ccccc32)cc1O | 67
COc1ccc(CN2c3ccccc3Sc3ccccc32)cc1F | 83
